Test results taken from patent EP4610267A1, “CYCLIC DINUCLEOTIDES AND CONJUGATES THEREOF WITH ANTIBODIES” (priority 2024, dated 2025).

System: CT26 mouse colon carcinoma
Assay: CT26 mouse tumor model, intratumoral injection, tumor growth
Format: in vivo, BALB/c mice
Settings: 5mg/kg intratumorally on day 1, 4 and 8
Procedure: The CT26 mouse colon carcinoma cell line was obtained from American Type Culture Collection (ATCC®, CRL-2638). The cells were cultured in RPMI-1640 medium containing 10% fetal bovine serum, 2 mM glutamine, 100 units/mL penicillin G sodium, and 100 µg/mL streptomycin sulfate at 37 °C in a humidified incubator with 5% CO2. On the day of tumor implantation in ten-week-old female BALB/c mice (Charles River Laboratories), CT26 cells harvested during the exponential growth phase were resuspended in phosphate-buffered saline (PBS) at a concentration of 1 × 10^7 cells/mL. Tumors were initiated by subcutaneous implantation of 1 × 10^6 CT26 cells (in a 0.1 mL suspension) into the right flank of each test animal. Tumor dimensions were measured in two directions, and tumor volumes were calculated using the formula (L × W^2)/2. Animals were pair matched when tumor reached volume 100 - 150 mm^3 (designated as day 1) and injected intratumorally (i.t.) on day 1, 4 and 8 with 5mg/kg or 1.5mg/kg Compound 2.2 or PBS in total volume 20 µL.

## Nc1ncnc2c1ncn2[C@@H]1O[C@@H]2OCP(=O)(S)O[C@@H]3[C@H](F)[C@@H](COP(=O)(S)OC[C@H]2[C@H]1F)O[C@H]3n1cnc2c(=O)[nH]cnc21 (single isomer, unassigned) [Compound 2.2]
  animals tumor free on day 65 (out twelve tumor bearing animals): Twelve
